From patent US20220305025A1, “PHOSPHATIDYLSERINE BINDING MOLECULES BLOCK IMMUNE SUPPRESSION OF TUMOR ASSOCIATED EXOSOMES” (priority 2019, published 2022)
“Also recorded” adds a separate entry of the source. Where two headings read alike, the source gives them in different places.

Experiments:
[1] = PS binding avidity
[2] = system: DM6-Mut tumor xenografts; conditions: for tumor escape / tumor growth: NSG mice bearing DM6-Mut xenografts treated with TKT cells, ExoBlock 64 mg/kg i.p., nivolumab 10 mg/kg
Text: (A) Experimental scheme and timeline (B-C) Tumor burdens on respective days in the X-mouse model in anti-PD-1 experiment (B) or the IL-12 experiment (C).
The X mouse model was established to allow for the rapid generation of human tumors and an in vivo method of evaluation of the anti-tumor responses of patient-derived T cells to patient tumor-specific peptides expressed by the established tumors.
There are 7 different T cells derived for 3 different patients available for our studies (Table 1). […] The melanoma tumor target cells (DM6) are either transduced with a tandem mini-gene expressing GFP or with luciferase and each are genetically modified to express either the mutated peptide (DM6-Mut), tumor target or the wild type peptide (DM6-WT) control target. Tumor growth in the X mouse model is monitored either by post-mortem quantification of GFP fluorescence in the omentum or by quantification of luciferase-dependent bioluminescence of the mice by live imaging.
The X-mouse model was used to test the efficacy of ExoBlock. ExoBlock was injected i.p. into NSG mice bearing DM6-Mut tumor xenografts and treated with TKT cells.

[3] = system: DM6-Mut cells; test: Direct effect on tumor target cells in vitro; type: cell-based, human; conditions: at the doses used
[4] = system: apoptotic cells (Jurkat cells); conditions: Jurkat cells treated with 10 μM Etoposide for 20 h; equimolar or titrating amounts
Description: Jurkat cells were treated with 10 μM Etoposide for 20 h to induce apoptosis. The cells were then stained with PSVue with equimolar or titrating molar amounts of ExoBlock. Sytox Red was used to eliminate dead cells from the analysis. The experiment was done in triplicate wells.

[5] = mouse, in vivo, 64 mg/kg
Text: (§1) Mice were euthanized 14 days after treatment with the drugs.

[6] = Systemic organ toxicity study in mice; conditions: dose 64 mg/kg
Text: as §1

[7] = system: tumor associated exosomes / T cells; test: Reversal of exosome-mediated arrest of T cell activation (CD3/CD28-activated PBL with exosomes)
Description: PBL were either unactivated (Unt) or activated for 2 h (hours) with immobilized antibodies to CD3 and CD28 with exosomes (Exo), exosomes with Zn-T-DPA and Exoblock (Exo+Zn-T-DPA and Exo+ExoBlock) or without (No Exo) exosomes. NFκB expression was detected using confocal microscopy.
T cells from normal donor peripheral blood leukocytes (NDPBL) were activated for 2 h with immobilized antibodies to CD3 and CD28 in the presence or absence of exosomes and 10 μM ExoBlock. The percentage of activation was determined by monitoring the upregulation of CD69. Percentage of inhibition and reversal were calculated.

Substance | avidity of PS binding [1] | tumor escape / tumor growth [2] | change in tumor burden ([2]; day 25, 64 mg/kg i.p.) | interference with anti-tumor responses of tumor-specific T cells ([2]; mouse model) | toxicities in pre-clinical efficacy studies ([2]; mouse model) | direct killing / suppression of tumor target cells [3] | competitive inhibition of PSVue 499 binding [4] | histopathology of organs [5] | systemic organ toxicity (NOAEL) [6] | batch consistency of reversal of immunosuppressive effect of exosomes ([7]; 10 μM ExoBlock, CD69 upregulation, NDPBL T cells) | blocking exosomal immune suppression in vitro ([7]; PBL activated 2 h with immobilized antibodies to CD3 and CD28 with exosomes) | reversal of the exosome-mediated arrest of T cell function ([7]; comparative studies, FIG. 2A-C) | tumor escape / tumor growth ([2]; listed as anti-PD-1)
(ZnDPA)6-DP-15K [ExoBlock] | bind PS with a high avidity; also recorded: greater avidity to PS as compared to Zn-T-DPA | significantly delayed tumor escape; also recorded: suppresses tumor growth and has comparable efficacy to anti-PD1 treatment | two-fold change in tumor burden | does not interfere with the anti-tumor responses of the tumor-specific T cells | no detectable toxicities | does not directly kill the tumor target cells; also recorded: no direct suppressive effect | competitively inhibits binding of PSVue 499 to apoptotic cells in a dose-dependent manner | No pathology was observed | NOAEL was observed | consistent in their ability to reverse immunosuppressive effect of exosomes | more effective than both anti-PS antibody and annexin V; also recorded: inhibits exosome-mediated arrest of T cell activation | 75-96% | 
nivolumab [reference compound] |  | enhanced the tumor suppression and delayed, but did not prevent tumor recurrence |  |  |  |  |  |  |  |  |  |  | delay tumor escape
